Test results as given in ChEMBL document CHEMBL1143298, “Second generation 4-(4-methyl-1H-indol-5-ylamino)-2-phenylthieno[2,3-b]pyridine-5-carbonitrile PKCtheta inhibitors” (Bioorg Med Chem Lett, 2009).
Converted amounts (≈) assume the structure as drawn.

Legend:
[1] = molecular target: Protein kinase C delta type (Homo sapiens, UniProt Q05655); test: Inhibition of human full length PKCdelta
[2] = molecular target: Tyrosine-protein kinase Lyn (Homo sapiens, UniProt P07948); test: Inhibition of Lyn
Chain of Tyrosine-protein kinase Lyn (P07948 whole entry): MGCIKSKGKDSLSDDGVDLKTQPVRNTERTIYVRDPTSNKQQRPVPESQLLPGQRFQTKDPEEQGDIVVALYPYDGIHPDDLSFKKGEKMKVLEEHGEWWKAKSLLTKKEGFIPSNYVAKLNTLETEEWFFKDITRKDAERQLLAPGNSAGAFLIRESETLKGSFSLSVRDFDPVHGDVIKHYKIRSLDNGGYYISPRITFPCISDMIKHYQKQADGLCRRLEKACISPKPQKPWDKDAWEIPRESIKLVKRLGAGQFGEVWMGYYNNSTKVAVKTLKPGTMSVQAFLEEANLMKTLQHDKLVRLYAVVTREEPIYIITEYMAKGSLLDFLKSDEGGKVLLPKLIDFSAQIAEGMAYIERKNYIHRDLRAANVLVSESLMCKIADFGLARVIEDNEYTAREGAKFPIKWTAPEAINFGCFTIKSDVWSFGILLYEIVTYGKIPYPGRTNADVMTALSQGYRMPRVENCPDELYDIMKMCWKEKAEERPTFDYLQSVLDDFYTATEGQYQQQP

[3] = molecular target: Protein kinase C theta type (Homo sapiens, UniProt Q04759); test: Inhibition of human full length PKCtheta
Chain of Protein kinase C theta type (Q04759 whole entry): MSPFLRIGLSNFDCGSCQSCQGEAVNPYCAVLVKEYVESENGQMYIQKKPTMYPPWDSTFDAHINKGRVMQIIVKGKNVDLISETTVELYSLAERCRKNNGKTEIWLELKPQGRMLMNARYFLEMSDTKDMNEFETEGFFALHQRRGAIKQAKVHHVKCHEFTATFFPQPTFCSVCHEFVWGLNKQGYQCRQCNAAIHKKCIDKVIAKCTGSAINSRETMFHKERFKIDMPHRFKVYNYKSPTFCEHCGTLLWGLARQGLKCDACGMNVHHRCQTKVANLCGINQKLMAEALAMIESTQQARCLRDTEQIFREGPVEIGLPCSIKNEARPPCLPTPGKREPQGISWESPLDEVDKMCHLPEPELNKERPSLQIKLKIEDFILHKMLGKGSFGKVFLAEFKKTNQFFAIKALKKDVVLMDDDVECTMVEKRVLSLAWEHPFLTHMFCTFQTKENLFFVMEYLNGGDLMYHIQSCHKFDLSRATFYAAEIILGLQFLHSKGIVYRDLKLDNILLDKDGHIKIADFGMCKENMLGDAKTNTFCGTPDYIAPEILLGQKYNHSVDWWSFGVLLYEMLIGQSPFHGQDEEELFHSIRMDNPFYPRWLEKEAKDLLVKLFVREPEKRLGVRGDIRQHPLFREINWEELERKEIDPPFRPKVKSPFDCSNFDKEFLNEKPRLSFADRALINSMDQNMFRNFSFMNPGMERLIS

[4] = species: Homo sapiens; test: Selectivity ratio of IC50 for human full length PKCdelta to IC50 for human full length PKCtheta
[5] = molecular target: Tyrosine-protein kinase Lck (Homo sapiens, UniProt P06239)
[6] = Inhibition of PDGFR
[7] = molecular target: Proto-oncogene tyrosine-protein kinase Src (Homo sapiens, UniProt P12931); test: Inhibition of Src
Chain of Proto-oncogene tyrosine-protein kinase Src (P12931 2-536 limits assumed): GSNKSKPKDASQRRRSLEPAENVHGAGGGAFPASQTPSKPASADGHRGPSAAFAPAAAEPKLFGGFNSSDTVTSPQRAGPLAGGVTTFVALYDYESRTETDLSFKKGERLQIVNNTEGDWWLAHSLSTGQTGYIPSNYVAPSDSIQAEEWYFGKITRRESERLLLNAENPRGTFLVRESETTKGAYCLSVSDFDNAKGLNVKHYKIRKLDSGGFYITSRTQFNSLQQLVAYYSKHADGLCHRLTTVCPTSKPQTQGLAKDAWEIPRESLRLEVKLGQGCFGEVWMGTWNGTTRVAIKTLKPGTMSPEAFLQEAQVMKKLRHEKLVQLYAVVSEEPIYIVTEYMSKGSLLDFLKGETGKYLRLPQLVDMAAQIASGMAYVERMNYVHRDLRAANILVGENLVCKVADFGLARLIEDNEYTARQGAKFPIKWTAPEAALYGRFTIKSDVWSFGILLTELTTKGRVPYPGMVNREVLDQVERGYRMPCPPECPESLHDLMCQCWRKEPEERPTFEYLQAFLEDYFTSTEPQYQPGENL

[8] = molecular target: Tyrosine-protein kinase Fyn (Homo sapiens, UniProt P06241); test: Inhibition of Fyn
[9] = molecular target: Protein kinase C beta type (Homo sapiens, UniProt P05771); test: Inhibition of human full length PKCbeta
Chain of Protein kinase C beta type (P05771 whole entry): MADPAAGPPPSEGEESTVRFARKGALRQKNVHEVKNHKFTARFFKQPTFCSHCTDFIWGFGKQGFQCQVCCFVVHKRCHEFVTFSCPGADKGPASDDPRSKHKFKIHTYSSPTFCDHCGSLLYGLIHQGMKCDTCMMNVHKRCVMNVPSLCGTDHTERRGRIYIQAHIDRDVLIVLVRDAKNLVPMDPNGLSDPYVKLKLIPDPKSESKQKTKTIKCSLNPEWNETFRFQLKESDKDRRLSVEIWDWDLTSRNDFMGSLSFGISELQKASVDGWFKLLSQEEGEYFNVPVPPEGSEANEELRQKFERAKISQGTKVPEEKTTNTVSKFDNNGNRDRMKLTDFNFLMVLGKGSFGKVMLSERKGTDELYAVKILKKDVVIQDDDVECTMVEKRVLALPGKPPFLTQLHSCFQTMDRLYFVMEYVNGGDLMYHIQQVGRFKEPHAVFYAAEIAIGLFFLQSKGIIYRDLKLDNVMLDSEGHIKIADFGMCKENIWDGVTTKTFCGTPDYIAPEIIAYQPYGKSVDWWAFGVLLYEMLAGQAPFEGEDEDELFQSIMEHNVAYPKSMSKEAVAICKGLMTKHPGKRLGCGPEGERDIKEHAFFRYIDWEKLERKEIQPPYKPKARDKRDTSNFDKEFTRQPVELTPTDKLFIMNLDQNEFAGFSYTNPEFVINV

[10] = Metabolic stability in rat liver microsomes; format: ADME, Microsome
[11] = Metabolic stability in mouse liver microsomes; format: ADME, Microsome
[12] = Metabolic stability in human liver microsomes; format: ADME, Microsome
[13] = molecular target: MAP kinase-activated protein kinase 2 (Homo sapiens, UniProt P49137); test: Inhibition of MK2
Chain of MAP kinase-activated protein kinase 2 (P49137 whole entry): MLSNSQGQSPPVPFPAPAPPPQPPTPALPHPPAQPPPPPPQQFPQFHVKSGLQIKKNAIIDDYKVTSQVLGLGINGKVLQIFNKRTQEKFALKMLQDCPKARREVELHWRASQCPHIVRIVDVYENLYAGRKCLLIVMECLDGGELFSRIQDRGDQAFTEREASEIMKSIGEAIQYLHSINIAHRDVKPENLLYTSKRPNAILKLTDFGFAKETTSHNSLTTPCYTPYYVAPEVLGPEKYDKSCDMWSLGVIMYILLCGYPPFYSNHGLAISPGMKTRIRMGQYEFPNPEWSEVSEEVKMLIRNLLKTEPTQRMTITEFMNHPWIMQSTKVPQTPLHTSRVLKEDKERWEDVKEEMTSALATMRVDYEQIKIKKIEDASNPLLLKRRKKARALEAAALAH

[14] = Inhibition of VEGFR
[15] = molecular target: Tyrosine-protein kinase HCK (Homo sapiens, UniProt P08631); test: Inhibition of Hck
Chain of Tyrosine-protein kinase HCK (P08631 whole entry): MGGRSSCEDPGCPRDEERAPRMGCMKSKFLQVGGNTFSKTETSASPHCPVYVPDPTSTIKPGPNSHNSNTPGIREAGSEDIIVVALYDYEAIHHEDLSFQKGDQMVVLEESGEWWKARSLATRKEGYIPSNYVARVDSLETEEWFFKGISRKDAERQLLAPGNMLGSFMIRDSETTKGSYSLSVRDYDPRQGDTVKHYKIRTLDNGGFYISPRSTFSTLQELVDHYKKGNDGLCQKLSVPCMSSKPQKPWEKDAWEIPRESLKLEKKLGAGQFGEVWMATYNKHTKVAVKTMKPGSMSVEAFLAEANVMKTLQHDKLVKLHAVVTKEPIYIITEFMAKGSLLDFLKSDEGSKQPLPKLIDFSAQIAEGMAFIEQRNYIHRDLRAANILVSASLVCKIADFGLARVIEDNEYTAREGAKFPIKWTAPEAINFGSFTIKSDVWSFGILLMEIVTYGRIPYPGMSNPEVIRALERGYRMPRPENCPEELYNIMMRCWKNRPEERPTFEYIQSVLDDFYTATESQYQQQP

[16] = molecular target: T1, Protein kinase C epsilon type (Homo sapiens, UniProt Q02156); test: Inhibition of human full length PKCepsilon
T1 sequence (Q02156 whole entry): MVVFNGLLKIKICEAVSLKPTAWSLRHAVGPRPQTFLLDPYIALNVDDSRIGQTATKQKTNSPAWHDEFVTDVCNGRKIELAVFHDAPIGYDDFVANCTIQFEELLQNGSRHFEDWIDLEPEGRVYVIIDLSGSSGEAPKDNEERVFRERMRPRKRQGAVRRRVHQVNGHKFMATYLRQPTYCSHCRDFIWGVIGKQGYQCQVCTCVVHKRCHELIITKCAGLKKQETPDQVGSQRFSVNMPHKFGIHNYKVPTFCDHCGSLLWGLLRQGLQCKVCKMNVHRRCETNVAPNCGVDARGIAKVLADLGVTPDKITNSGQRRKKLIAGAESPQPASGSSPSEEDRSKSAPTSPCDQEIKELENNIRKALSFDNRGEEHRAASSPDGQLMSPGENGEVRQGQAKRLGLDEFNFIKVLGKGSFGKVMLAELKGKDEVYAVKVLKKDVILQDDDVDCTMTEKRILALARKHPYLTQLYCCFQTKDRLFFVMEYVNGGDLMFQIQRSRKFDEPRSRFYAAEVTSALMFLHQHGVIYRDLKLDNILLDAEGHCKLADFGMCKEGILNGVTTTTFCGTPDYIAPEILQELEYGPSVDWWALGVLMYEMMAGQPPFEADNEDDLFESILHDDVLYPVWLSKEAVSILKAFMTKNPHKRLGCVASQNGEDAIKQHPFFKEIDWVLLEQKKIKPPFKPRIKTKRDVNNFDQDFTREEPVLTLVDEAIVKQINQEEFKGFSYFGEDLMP

[17] = molecular target: Protein kinase C eta type (Homo sapiens, UniProt P24723); test: Inhibition of human full length PKCeta
Chain of Protein kinase C eta type (P24723 whole entry): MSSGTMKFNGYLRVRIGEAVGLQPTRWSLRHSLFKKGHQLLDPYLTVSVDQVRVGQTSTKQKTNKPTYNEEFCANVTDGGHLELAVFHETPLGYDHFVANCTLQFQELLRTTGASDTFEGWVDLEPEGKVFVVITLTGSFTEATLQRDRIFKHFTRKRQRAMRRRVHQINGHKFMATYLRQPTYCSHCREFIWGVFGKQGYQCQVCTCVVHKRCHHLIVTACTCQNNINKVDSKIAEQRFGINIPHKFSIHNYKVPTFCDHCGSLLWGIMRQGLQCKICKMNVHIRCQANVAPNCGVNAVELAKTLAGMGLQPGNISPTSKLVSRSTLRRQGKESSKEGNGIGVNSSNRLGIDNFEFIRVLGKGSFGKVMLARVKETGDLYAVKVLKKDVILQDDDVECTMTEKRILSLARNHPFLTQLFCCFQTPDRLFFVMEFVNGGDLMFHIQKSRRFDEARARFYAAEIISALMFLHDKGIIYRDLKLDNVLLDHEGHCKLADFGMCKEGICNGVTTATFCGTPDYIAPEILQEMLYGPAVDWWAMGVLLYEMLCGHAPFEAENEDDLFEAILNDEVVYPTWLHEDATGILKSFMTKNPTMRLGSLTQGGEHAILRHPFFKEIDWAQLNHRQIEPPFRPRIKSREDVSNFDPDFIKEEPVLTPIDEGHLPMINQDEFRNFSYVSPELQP

[18] = Solubility at pH 7.4; format: physicochemical; conditions: buffer
[19] = Membrane permeability by PAMPA; format: ADME; conditions: read-out: permeability
[20] = Inhibition of p38

Chain of Protein kinase C delta type (Q05655 whole entry): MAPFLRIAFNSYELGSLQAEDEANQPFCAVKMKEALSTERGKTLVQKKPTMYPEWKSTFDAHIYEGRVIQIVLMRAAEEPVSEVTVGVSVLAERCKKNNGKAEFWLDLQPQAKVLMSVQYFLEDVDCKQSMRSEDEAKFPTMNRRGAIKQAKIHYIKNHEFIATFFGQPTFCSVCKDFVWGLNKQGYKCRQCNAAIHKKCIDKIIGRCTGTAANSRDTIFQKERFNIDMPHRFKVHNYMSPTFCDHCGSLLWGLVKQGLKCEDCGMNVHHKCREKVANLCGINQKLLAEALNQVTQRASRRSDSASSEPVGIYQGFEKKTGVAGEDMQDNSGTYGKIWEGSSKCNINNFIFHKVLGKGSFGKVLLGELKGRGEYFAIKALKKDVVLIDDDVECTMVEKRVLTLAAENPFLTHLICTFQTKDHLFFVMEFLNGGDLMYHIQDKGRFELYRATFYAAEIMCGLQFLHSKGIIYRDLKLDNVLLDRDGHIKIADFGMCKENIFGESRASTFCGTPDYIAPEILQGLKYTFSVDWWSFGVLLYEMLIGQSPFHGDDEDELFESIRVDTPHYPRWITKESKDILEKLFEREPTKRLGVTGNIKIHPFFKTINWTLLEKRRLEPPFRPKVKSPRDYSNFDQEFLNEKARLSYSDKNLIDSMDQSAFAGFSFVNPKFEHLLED

Compound	IC50 [1]	IC50 [2]	IC50 [3]	Ratio IC50 [4]	other results
N#Cc1cnc2sc(-c3ccccc3)cc2c1Nc1ccc2[nH]ccc2c1			52 nM		
Cc1c(Nc2c(C#N)cnc3sc(-c4cccc(CN(C)C)c4)cc23)ccc2[nH]ccc12		520 nM		4	
COc1ccc(CN(C)C)cc1-c1cc2c(Nc3ccc4[nH]ccc4c3C)c(C#N)cnc2s1	24 nM	23 nM	8.7 nM		IC50 [5]: 6 nM
Cc1c(Nc2c(C#N)cnc3sc(-c4ccccc4CN(C)C)cc23)ccc2[nH]ccc12	380 nM	37000 nM			
Cc1c(Nc2c(C#N)cnc3sc(-c4cncc(CN(C)C)c4)cc23)ccc2[nH]ccc12	170 nM	2200 nM	84 nM		
COc1c(CN(C)C)cccc1-c1cc2c(Nc3ccc4[nH]ccc4c3C)c(C#N)cnc2s1	27 nM	1700 nM		2	
COc1ccc(CN(C)C)c(-c2cc3c(Nc4ccc5[nH]ccc5c4C)c(C#N)cnc3s2)c1	130 nM	13000 nM			IC50 [6]: > 5000 nM; IC50 [7]: > 5000 nM; IC50 [8]: > 5000 nM; IC50 [9]: 22000 nM; half-life [10]: < 10 min; half-life [11]: < 10 min; half-life [12]: < 10 min; IC50 [13]: > 5000 nM; IC50 [14]: > 5000 nM; IC50 [15]: > 5000 nM; IC50 [16]: 95 nM; IC50 [17]: 360 nM; solubility [18]: 12 µg/mL (≈ 25.7 µM); Papp [19]: 1.04 ×10⁻⁶ cm/s; IC50 [20]: > 5000 nM

Continued by falling IC50 [2], values first:

IC50 [1]	IC50 [2]	IC50 [3]	Ratio IC50 [4]	Compound	other results
51 nM	410 nM			Cc1c(Nc2c(C#N)cnc3sc(-c4csc(CN(C)C)c4)cc23)ccc2[nH]ccc12	
250 nM	310 nM	23 nM	10	COc1ccccc1-c1cc2c(Nc3ccc4[nH]ccc4c3C)c(C#N)cnc2s1	
410 nM	230 nM		4	Cc1ccc(CN(C)C)cc1-c1cc2c(Nc3ccc4[nH]ccc4c3C)c(C#N)cnc2s1	
88 nM	100 nM			Cc1c(Nc2c(C#N)cnc3sc(-c4ccc(CN(C)C)cc4)cc23)ccc2[nH]ccc12	
82 nM	74 nM	9.2 nM	9	CCOc1ccc(CN(C)C)cc1-c1cc2c(Nc3ccc4[nH]ccc4c3C)c(C#N)cnc2s1	
